Results published in patent publication US20250034586A1, “METHOD FOR EDITING BANANA GENES” (Tropic Biosciences UK Limited, priority 2021, published 2025).

Legend:
PPO2, Ma07_g03540 = assay: Trait co-editing in selected embryos (PBE #3); assay type: cell-based, banana; settings: for PPO2 edited embryos total: 16 embryos tested
Procedure: We transformed ECS as described previously in Example 6, using the new co-editing plasmids detailed in Table 11 above. Embryos were regenerated as detailed previously, either on media without selection, with 25 mg/L G418, 25 μg/L CSF or 50 μg/L CSF. Initial genotyping of all plasmids tested:
• All with CsVMV-rAPOBEC1 CBE (rAPOBEC+nCas9 (D10A) PBE from Zong et al. 2017*) and nosP-NptII • pMol_0925 (sgGFP-pNOS::Kan::tOCS-pCsVMV::nCas9PBE1::tg7-Dummy-pTaU6::sg1GFP_58-pTaU6::sg2GFP_59) • pMol_0934 (sgGFP, sgALS1-pNOS::Kan::tOCS-pCsVMV::nCas9PBE1::tg7-taU6::MaALS1sg2_2021-pTaU6::sg1GFP_58-pTaU6::sg2GFP_59) • pMol_0935 (sgGFP, sgALS2-pNOS::Kan::tOCS-pCsVMV::nCas9PBE1::tg7-taU6::MaALS2sg2_2023-pTaU6::sg1GFP_58-pTaU6::sg2GFP_59) • pMol_0926 (sgPPO2, sgALS1-pNOS::Kan::tOCS-pCsVMV::nCas9PBE1::tg7-taU6::MaALS1sg2_2021-pTaU6::sg1PPO2_2961-pTaU6::sg2PPO2_2962-pTaU6::sg3PPO2_2963) • pMol_0927 (sgPPO2, sgALS1-pNOS::Kan::tOCS-pCsVMV::nCas9PBE1::tg7-taU6::MaALS1sg2_2021-pTaU6::sg3PPO2_2963-pTaU6::sg4PPO2_2964) • pMol_0928 (sgACO1, sgALS1-pNOS::Kan::tOCS-pCsVMV::nCas9PBE1::tg7-taU6::MaALS1sg2_2021-pTaU6::sg1ACO1_2965-pTaU6::sg2ACO1_2966-pTaU6::sg3ACO1_2967) • pMol_0929 (sgPPO2, sgALS2-pNOS::Kan::tOCS-pCsVMV::nCas9PBE1::tg7-taU6::MaALS2sg2_2023-pTaU6::sg1PPO2_2961-pTaU6::sg2PPO2_2962-pTaU6::sg3PPO2_2963) • pMol_0930 (sgPPO2, sgALS2-pNOS::Kan::tOCS-pCsVMV::nCas9PBE1::tg7-taU6::MaALS2sg2_2023-pTaU6::sg3PPO2_2963-pTaU6::sg4PPO2_2964) • pMol_0931 (sgACO1, sgALS2-pNOS::Kan::tOCS-pCsVMV::nCas9PBE1::tg7-taU6::MaALS2sg2_2023-pTaU6::sg1ACO1_2965-pTaU6::sg2ACO1_2966-pTaU6::sg3ACO1_2967) ECS were left to ‘recover’ after transformation for 1 week in CS+cefo 300 mg/L. We regenerated embryos in 4 different conditions: • 1. No selection • 2. Stable G418 selection (in EDM only 2-3 months) from PBE #3 only (PBE #1/2 plasmids only have mCherry, not NptII) • 3. 25 μg/L chlorsulfuron (in EDM only 2-3 months) • 4. 50 μg/L chlorsulfuron (in EDM only 2-3 months)
(§1) gDNA from embryos and plantlets was extracted and qPCR was used to test for the presence of integrated tDNA in the plant genome. Three independent qPCRs were run on each sample with different sets of primers (listed below) spanning the tDNA, ranging from the left to right border. An additional qPCR was run on an endogenous banana gene (actin) for normalisation of Ct values. All qPCRs were run on the LightCycler® 96 System (Roche) using PowerUp™ SYBR® Green Master Mix (Thermo Fisher Scientific™).
(§2) For edit validation, amplicons for each target gene (als1, als2, ppo2, aco1) were made using Q5® High-Fidelity 2× Master Mix (New England Biolabs, NEB) using reaction settings listed below. PCR products were purified using Monarch® PCR & DNA Cleanup Kit (NEB) according to manufacturer's specifications. The amplicons were after validated by Sanger sequencing.

Sugar cane callus = settings: after 5 weeks; 3.6, 20, 50, 200, 500 μg/L tested; cited from earlier work
[1] = test system: banana WT and ALS edited embryos; assay: CSF in ECS regeneration, optimisation for edited embryos; assay type: cell-based; settings: 3 months treatment
Procedure: Data were obtained for using CSF in ECS regeneration (3 months treatment) for concentrations 0, 25, 50 and 100 μg/L.

ALS1 or ALS2 = assay: Genotyping of CSF-selected samples (PBE experiments); assay type: cell-based, banana; settings: across all experiments, embryos and shoots
Text: as §1, §2

Tomato plants = settings: in vivo; cited from earlier work

## COc1nc(C)nc(NC(=O)NS(=O)(=O)c2ccccc2Cl)n1 [CSF, chlorsulfuron]
PPO2, Ma07_g03540; 25CSF selection
  Percentage edited PPO2 embryos: 37.5
  PPO2 edited embryos total: 6
PPO2, Ma07_g03540; 50CSF selection
  Percentage edited PPO2 embryos: 43.75
  PPO2 edited embryos total: 7
Sugar cane callus
  Best concentration for selection: 3.6 µg/L
[1]; CSF 25 μg/L
  Frequency of ALS edited embryos recovered after selection: 1500 ± 500
  Frequency of WT embryos recovered after selection: 0
[1]; CSF 50 μg/L
  Frequency of ALS edited embryos recovered after selection: 750 ± 250
  Frequency of WT embryos recovered after selection: 0
[1]; CSF 100 μg/L
  Frequency of ALS edited embryos recovered after selection: 0
  Frequency of WT embryos recovered after selection: 0
ALS1 or ALS2
  Non-transgenic rate in CSF selected samples: > 10%
Tomato plants
  CSF concentration reported to be effective: 3.6 µg/L
